For experiment [1], the target named is T1, SMYD3 (Homo sapiens (Human), UniProt Q9H7B4). The experiment in a line: SMYD3 cell assay (Trimethyl-MEKK2 In-Cell Western in 293T/17 cells). Format: cell-based. The following applies: read-out: SMYD3 Cell IC50*. An outline of the steps: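 In-Cell Western ratio of trimethyl-Lys260 MEKK2 to anti-flag signal; percent inhibition from DMSO and maximum-inhibition controls, IC50 by non-linear regression, triplicates.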

Experiment [2] deals with T1, SMYD3. The experiment in a line: SMYD3 biochemical assay (SPA, 3H-SAM methylation of MEKK2 protein substrate). Conditions: read-out: SMYD3 Biochem IC50*. In outline:
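Full-length native human SMYD3 (E. coli-expressed, tags removed) preincubated with compounds 30 min at room temperature, then reaction started with 3H-SAM and GST-tagged MEKK2 protein in 25 mM Tris-Cl pH 8.0, 1 mM TCEP, 0.005% BSG, 0.005% Tween 20. Quenched with unlabelled SAM (100 uM final); 3H-MEKK2 counted by SPA.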

pIC50: −log10 of the molar value.

T1 sequence (Q9H7B4 whole entry): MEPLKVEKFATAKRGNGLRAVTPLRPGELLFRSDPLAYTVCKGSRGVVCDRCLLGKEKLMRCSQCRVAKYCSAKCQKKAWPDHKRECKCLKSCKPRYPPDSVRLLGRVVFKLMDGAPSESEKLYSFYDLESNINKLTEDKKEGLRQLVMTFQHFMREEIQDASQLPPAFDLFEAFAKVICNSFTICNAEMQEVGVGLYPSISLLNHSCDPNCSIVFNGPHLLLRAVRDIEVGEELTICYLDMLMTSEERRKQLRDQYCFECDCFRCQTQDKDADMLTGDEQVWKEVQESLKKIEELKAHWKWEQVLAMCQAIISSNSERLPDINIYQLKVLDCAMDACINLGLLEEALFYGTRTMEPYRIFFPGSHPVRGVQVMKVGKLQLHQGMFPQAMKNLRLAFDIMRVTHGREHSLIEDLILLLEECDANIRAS

The term pIC50 denotes the IC50 on a negative log10 scale, so that one unit is a factor of ten. `O=C(N[C@H]1C[C@H]2CC[C@@H](C1)N2S(=O)(=O)N1CCC(NCCCC(F)(F)F)CC1)c1cc(C2CC2)on1` [compound 794, 5-cyclopropyl-N-((1R,3r,5S)-8-((4-((4,4,4-trifluorobutyl)amino)piperidin-1-yl)sulfonyl)-8-azabicyclo[3.2.1]octan-3-yl)isoxazole-3-carboxamide]: the negative logarithm of the IC50 (pIC50) was 7.46 on SMYD3 [1] and 8.73 on SMYD3 [2].

As to `C[C@H]1C[C@@H](NC(=O)c2cc(C3CC3)on2)CCN1S(=O)(=O)CC[C@@H]1CCN(C)C1` [compound 795, 5-cyclopropyl-N-((2S,4S)-2-methyl-1-((2-((S)-1-methylpyrrolidin-3-yl)ethyl)sulfonyl)piperidin-4-yl)isoxazole-3-carboxamide], the results for the pIC50 on SMYD3 [1] and on SMYD3 [2] were 7.56 and 8.73, respectively.

Consider `CC1(N)CCN(S(=O)(=O)N2[C@@H]3CC[C@H]2C[C@@H](NC(=O)c2cc(C4CC4)on2)C3)CC1` [compound 796, N-((1R,3r,5S)-8-((4-amino-4-methylpiperidin-1-yl)sulfonyl)-8-azabicyclo[3.2.1]octan-3-yl)-5-cyclopropylisoxazole-3-carboxamide], for which the figures for the negative-log IC50 (pIC50) at SMYD3 [1] and at SMYD3 [2] were 7.39 and 8.72, respectively.

For `CCc1cc(C(=O)N[C@H]2C[C@H]3CC[C@@H](C2)N3S(=O)(=O)CC2CCN(C)CC2)no1` [compound 797, 5-ethyl-N-((1R,3r,5S)-8-(((1-methylpiperidin-4-yl)methyl)sulfonyl)-8-azabicyclo[3.2.1]octan-3-yl)isoxazole-3-carboxamide], the pIC50 on SMYD3 [1] was 7.37; on SMYD3 [2] it was 8.72.

In the case of `CN[C@H]1CC[C@@H](S(=O)(=O)N2[C@@H]3CC[C@H]2C[C@@H](NC(=O)c2cc(C4CC4)on2)C3)CC1` [compound 798, 5-cyclopropyl-N-((1R,3R,5S)-8-(((1s,4S)-4-(methylamino)cyclohexyl)sulfonyl)-8-azabicyclo[3.2.1]octan-3-yl)isoxazole-3-carboxamide], the results for the pIC50 at SMYD3 [1] and on SMYD3 [2] were 7.52 and 8.72, respectively.

As to `CCc1cc(C(=O)N[C@H]2C[C@H]3CC[C@@H](C2)N3S(=O)(=O)N2CCC(N)CC2)no1` [compound 799, N-((1R,3r,5S)-8-((4-aminopiperidin-1-yl)sulfonyl)-8-azabicyclo[3.2.1]octan-3-yl)-5-ethylisoxazole-3-carboxamide], the values for the pIC50 on SMYD3 [1] and at SMYD3 [2] were 7.46 and 8.69, respectively.

For `CC1CN(S(=O)(=O)N2CC[C@H](NC(=O)c3cc(C4CC4)on3)C[C@@H]2C)CCC1N` (stereo partly drawn) [compound 800, N-((2S,4S)-1-((4-amino-3-methylpiperidin-l-yl)sulfonyl)-2-methylpiperidin-4-yl)-5-cyclopropylisoxazole-3-carboxamide], the pIC50 at SMYD3 [1] was 7.40; on SMYD3 [2] it was 8.66.

For the compound `NC1C2CN(S(=O)(=O)N3[C@@H]4CC[C@H]3C[C@@H](NC(=O)c3cc(C5CC5)on3)C4)CC12` (stereo partly drawn) [compound 801, N-((1R,3r,5S)-8-((6-amino-3-azabicyclo[3.1.0]hexan-3-yl)sulfonyl)-8-azabicyclo[3.2.1]octan-3-yl)-5-cyclopropylisoxazole-3-carboxamide], the results for the pIC50 at SMYD3 [1] and on SMYD3 [2] were 7.56 and 8.66, respectively.

For `CNC1CCC(CS(=O)(=O)N2CC[C@H](NC(=O)c3cc(C4CC4)on3)C[C@@H]2C)C1` (stereo partly drawn) [compound 802, 5-cyclopropyl-N-((2S,4S)-2-methyl-1-(((3-(methylamino)cyclopentyl)methyl)sulfonyl)piperidin-4-yl)isoxazole-3-carboxamide], the pIC50 was 7.57 on SMYD3 [1] and 8.64 at SMYD3 [2].

As to `CC1CC(N)CCN1S(=O)(=O)N1[C@@H]2CC[C@H]1C[C@@H](NC(=O)c1cc(C3CC3)on1)C2` (stereo partly drawn) [compound 803, N-((1R,3r,5S)-8-((4-amino-2-methylpiperidin-1-yl)sulfonyl)-8-azabicyclo[3.2.1]octan-3-yl)-5-cyclopropylisoxazole-3-carboxamide], the pIC50 on SMYD3 [1] was 7.23; on SMYD3 [2], 8.64.

On to `C[C@H]1C[C@@H](NC(=O)c2cc(C3CC3)on2)CCN1S(=O)(=O)N1CCC2(CCCN2)CC1` [compound 804, N-((2S,4S)-1-((1,8-diazaspiro[4.5]decan-8-yl)sulfonyl)-2-methylpiperidin-4-yl)-5-cyclopropylisoxazole-3-carboxamide], for which the pIC50 at SMYD3 [1] was 7.22; on SMYD3 [2], 8.63.

On to `CN(C)C1CCN(S(=O)(=O)N2[C@@H]3CC[C@H]2C[C@@H](NC(=O)c2cc(C4CC4)on2)C3)CC1` [compound 805, 5-cyclopropyl-N-((1R,3r,5S)-8-((4-(dimethylamino)piperidin-1-yl)sulfonyl)-8-azabicyclo[3.2.1]octan-3-yl)isoxazole-3-carboxamide], for which the pIC50 on SMYD3 [1] was 7.27; on SMYD3 [2], 8.62.

`CCC[C@H]1C[C@@H](NC(=O)c2cc(C3CC3)on2)CCN1S(=O)(=O)CCCN` [compound 806, N-((2S,4S)-1-((3-aminopropyl)sulfonyl)-2-propylpiperidin-4-yl)-5-cyclopropylisoxazole-3-carboxamide]: the pIC50 was 6.95 on SMYD3 [1] and 8.62 on SMYD3 [2].

With `CN(C)[C@H]1CC[C@H](S(=O)(=O)N2[C@@H]3CC[C@H]2C[C@@H](NC(=O)c2cc(C4CC4)on2)C3)CC1` [compound 807, 5-cyclopropyl-N-((1R,3R,5S)-8-(((1r,4R)-4-(dimethylamino)cyclohexyl)sulfonyl)-8-azabicyclo[3.2.1]octan-3-yl)isoxazole-3-carboxamide], the pIC50 on SMYD3 [1] was 7.07; at SMYD3 [2], 8.61.

On to `C[C@H]1C[C@@H](NC(=O)c2cc(C3CC3)on2)CCN1S(=O)(=O)N1CCC(NCCO)CC1` [compound 808, 5-cyclopropyl-N-((2S,4S)-1-((4-((2-hydroxyethyl)amino)piperidin-1-yl)sulfonyl)-2-methylpiperidin-4-yl)isoxazole-3-carboxamide], for which the pIC50 was 7.43 on SMYD3 [1] and 8.61 on SMYD3 [2].

With `CC(C)CN1CCC(CS(=O)(=O)N2[C@@H]3CC[C@H]2C[C@@H](NC(=O)c2cc(C4CC4)on2)C3)CC1` [compound 809, 5-cyclopropyl-N-((1R,3r,5S)-8-(((1-isobutylpiperidin-4-yl)methyl)sulfonyl)-8-azabicyclo[3.2.1]octan-3-yl)isoxazole-3-carboxamide], the pIC50 on SMYD3 [1] was 7.37; on SMYD3 [2] it was 8.60.

On to `O=C(N[C@H]1C[C@H]2CC[C@@H](C1)N2S(=O)(=O)N1CCC(NCc2ccccc2)CC1)c1cc(C2CC2)on1` [compound 810, N-((1R,3r,5S)-8-((4-(benzylamino)piperidin-1-yl)sulfonyl)-8-azabicyclo[3.2.1]octan-3-yl)-5-cyclopropylisoxazole-3-carboxamide], for which the results for the pIC50 on SMYD3 [1] and at SMYD3 [2] were 7.14 and 8.60, respectively.

As for `CCc1cc(C(=O)N[C@H]2CCN(S(=O)(=O)c3ccc(C(C)(C)N)cc3)[C@@H](C)C2)no1` [compound 811, N-((2S,4S)-1-((4-(2-aminopropan-2-yl)phenyl)sulfonyl)-2-methylpiperidin-4-yl)-5-ethylisoxazole-3-carboxamide], the results for the pIC50 at SMYD3 [1] and on SMYD3 [2] were 7.47 and 8.59, respectively.

On to `CNC1CCN(S(=O)(=O)N2[C@@H]3CC[C@H]2C[C@@H](NC(=O)c2cc(C4CC4)on2)C3)CC1` [compound 812, 5-cyclopropyl-N-((1R,3r,5S)-8-((4-(methylamino)piperidin-1-yl)sulfonyl)-8-azabicyclo[3.2.1]octan-3-yl)isoxazole-3-carboxamide], for which the values for the pIC50 at SMYD3 [1] and on SMYD3 [2] were 7.39 and 8.58, respectively.

(Values after patent US10577363B2, “Substituted piperidine compounds” (EPIZYME, INC., priority 2014, dated 2020).)
